Earlier results in patent US10513689B2, “Culture media for multipotent stem cells” (Hope Biosciences LLC, priority 2016, dated 2019).

Tested on: MSCs
Conditions: Tamama et al., 2010

In the case of “EGF: Epidermal growth factor, mitogen of MSCs”, the “increase in the number of colony-forming units” value is given as 25%.
